The target in data set [1] is T1, Creatine transporter (CRT) (Homo sapiens, UniProt P48029).
T1 sequence (P48029 1-635): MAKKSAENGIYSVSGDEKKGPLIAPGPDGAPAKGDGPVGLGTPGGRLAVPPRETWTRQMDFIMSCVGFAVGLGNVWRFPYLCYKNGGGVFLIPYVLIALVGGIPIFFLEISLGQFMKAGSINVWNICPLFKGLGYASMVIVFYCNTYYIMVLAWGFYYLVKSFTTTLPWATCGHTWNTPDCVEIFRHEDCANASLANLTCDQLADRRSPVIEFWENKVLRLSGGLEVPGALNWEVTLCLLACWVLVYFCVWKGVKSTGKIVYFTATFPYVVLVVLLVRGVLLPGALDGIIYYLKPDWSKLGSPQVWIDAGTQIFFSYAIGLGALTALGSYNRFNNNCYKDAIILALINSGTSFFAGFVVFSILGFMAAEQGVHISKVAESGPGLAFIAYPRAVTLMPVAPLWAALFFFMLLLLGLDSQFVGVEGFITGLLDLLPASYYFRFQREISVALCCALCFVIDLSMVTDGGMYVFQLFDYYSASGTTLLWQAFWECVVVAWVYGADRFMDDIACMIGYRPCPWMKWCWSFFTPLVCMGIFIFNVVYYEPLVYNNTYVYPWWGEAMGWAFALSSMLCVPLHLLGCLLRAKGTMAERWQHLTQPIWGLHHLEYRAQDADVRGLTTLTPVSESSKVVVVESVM
Put plainly: [14C]cyclocreatine / [14C]creatine uptake by HEK293 cells. On the set-up: endogenous in cells; host or cells: HEK293 cells. The conditions noted are these: for inhibition of uptake by CRT-targeting siRNA: CRT protein expression reduced by 42%, substrate 9 µM. The class given is cell-based. As for the experimental part:
(§1) Methods: Cells were incubated with [14C]cyclocreatine (9 µM) and [14C]creatine (9 µM) for the indicated times at 37 °C in the presence or absence of several compounds. siRNAs were transfected by lipofection. Protein and mRNA expressions were quantified by LC–MS/MS and qPCR, respectively.

The target of data set [2] is T1, Creatine transporter (CRT). Put plainly: [14C]cyclocreatine / [14C]creatine uptake by hCMEC/D3 cells. It counts as cell-based. Details: hCMEC/D3 cells, which are immortalized human brain microvascular endothelial cells; endogenous in cells; host or cells: hCMEC/D3 cells. The conditions noted are these: for inhibition of uptake by CRT-targeting siRNA: CRT mRNA expression reduced by 97%, substrate 9 µM; for suppression of [14C]cyclocreatine uptake: [14C]cyclocreatine 9 µM, 37 °C. As to the method: as §1

A short description of data set [3]: Chemical stability in cell media supplemented with 10% FBS by UPLC. The following applies: for % of initial remained intact: UPLC, cell media supplemented with 10% FBS, 4 h incubation, fluorophore-labelled constructs. The class given is in vitro ADME. The source says:
All constructs were stable in PBS.

The next data set concerns astrocytes. As to the kind of experiment: Uptake in astrocytes cultured on the basolateral (brain) side. The class given is cell-based. The following applies: rat astrocytes below bovine brain endothelial cells; fluorophore-labelled.
In data set [4] the test system is murine brain microvascular endothelial cells (MBMECs). As to the kind of experiment: NMDAR modulators on brain endothelial cells (electrophysiology, Ca2+, TEER, migration). It counts as cell-based. The following applies: for NMDAR mediated current: whole cell recorded MBMECs, compared to control conditions. The source says: In neurodegenerative disorders, concentrations of extracellular neurotransmitter in the central nervous system (CNS) are out of balance. Glutamatergic dysregulation and extracellular glycine accumulation cause excitotoxicity and subsequent neuronal death. This process is largely mediated by N-methyl-D-aspartate receptor (NMDAR) activation. NMDARs are ionotropic receptors permeable for positive ions. In the CNS, they are composed by two obligatory NR1 subunits containing glycine binding sites and two NR2 subunits that are activated by glutamate. NR3 subunits which are less abundant in the CNS are activated by glycine. While neuronal NMDARs are well studied, their functional role on endothelial cells (ECs) is still to be investigated. ECs of the Blood Brain Barrier (BBB) are exposed to the extracellular milieu of the CNS and therefore to high concentrations of neurotransmitters. In this study, we investigated the effect of NMDAR modulators on murine brain microvascular endothelial cells (MBMECs).

Data set [5] relates to Rat primary brain endothelial, pericyte and astroglial cell cultures. Put plainly: Kainate damage and drug protection in BBB culture model. The source says: In animal models of epilepsy induced by kainic acid, the primary ligand of ionotropic kainate receptors, BBB damage occurs, but the effect of kainate on brain endothelial cells has not been studied. Our aim was to examine the presence of kainate receptors and the effects of kainate on cultured cells of the BBB and to test anti-inflammatory and antioxidant drugs to protect against kainate-induced changes. Rat primary brain endothelial, pericyte and astroglial cell cultures were used to study cell viability by impedance measurement and cell morphology. BBB permeability was measured on a model made from the three cell types. The production of nitrogen monoxide and reactive oxygen species was followed by fluorescent probes. Four drugs were tested to protect against kainate-induced changes. The mRNA expression of kainate receptors and nitric oxide synthases (NOS) were studied by RT-PCR.

The next data set concerns transgenic hAPP mice. Put plainly: PCN or NAC purified diet in transgenic hAPP mice. The class given is in vivo. An excerpt: Methods: To test our hypothesis, transgenic hAPP mice received a purified diet containing the PXR activator pregnenolone 16α-carbonitrile (PCN) or the ROS scavenger N-acetyl-L-cysteine (NAC). We assessed P-gp protein expression and transport activity, Aβ brain and plasma levels, capillary leakage, renal function and cognition to test the PCN or NAC effect in hAPP mice.

In data set [6] the test system is primary mouse brain microvascular endothelial cells (pMBMECs). As to the kind of experiment: Effector OT-I CD8+ T-cell interaction with antigen-pulsed pMBMECs under physiological flow. The class given is cell-based. The following applies: SIINFEKL and MHC class I on WT pMBMECs. An excerpt:
Methods and results: We used primary mouse brain microvascular endothelial cells (pMBMECs) as an in vitro model for BBB. […] We next investigated, if naive CD8+ T cells can interact with pMBMECs under physiological flow. […] This prompted us to investigate how endothelial Ag-presentation contributes to the interaction of effector OT-I CD8+ T-cells with pMBMECs under physiological flow.

Substrate in data set [7]: NC1=NCCN1CC(=O)O
As to the kind of experiment: [14C]cyclocreatine / [14C]creatine uptake by HEK293 cells. The conditions noted are these: other: HEK293 cells, 37 °C, saturable kinetics. The class given is cell-based. As to the method:
as §1

The mark [8] stands for this setting: 12-month old mice treated for 3 weeks.

Experimental findings from PMC6737591, “Abstracts from the 22nd International Symposium on Signal Transduction at the Blood–Brain Barriers” (Fluids and Barriers of the CNS, 2019) are described below.

What is called inhibition is the share of the control response that was lost under treatment. The term Km denotes the substrate concentration at which the rate is half of its maximum.

Take `NC1=NCCN1CC(=O)O` [[14C]cyclocreatine, cyclocreatine]: the results for the “inhibition of uptake by CRT-targeting siRNA” value (“inhibition of uptake” below) in data set [1] (HEK293 cells) and in data set [2] were 33% and 70%, respectively.

On to “NR2B9c: clinically relevant peptide drug entity (1 kDa) (KLSSIESDV; UniProt Q13224 1476-1484, looked up, fragment)”, for which the “% of initial remained intact” value in data set [3] is reported as ~ 90%. Moreover, the “uptake in astrocytes cultured on the basolateral (brain) side” value in the data set with astrocytes is “not”.

In the case of `O=C(O)c1cccnc1C(=O)O` [quinolinic acid], the “transendothelial electrical resistance (TEER)” value in data set [4] (MBMECs) is “No changes”. For the same molecule, in data set [4], the NMDAR mediated current result was “did neither evoke any”.

Regarding `C=C(C)[C@H]1CN[C@H](C(=O)O)[C@H]1CC(=O)O` [Kainate, kainic acid], the “production of nitric oxide (NO) in brain endothelial cells” value in data set [5] (fluorescent probes) is listed as “increased”. In data set [5] (rat primary astroglial cells), the “viability or morphology of astroglial cells” value is given as “unchanged”. Further, the “effect on brain endothelial cells (viability by impedance)” value in data set [5] (rat primary brain endothelial cells, concentration- and time-dependent) is recorded as “damaged”.

Turning to `CC(=O)N[C@@H](CS)C(=O)O` [NAC, N-acetyl-L-cysteine], in the data set on transgenic hAPP mice (setting [8]), the barrier leakage entry is listed as “reduced” and the renal function entry was “improved”.

As to `CC1=NN(c2ccccc2)C(=O)C1` [edaravone], in [5] (kainate-treated cells / BBB model), the “protection against the reduced cell viability and increased permeability caused by kainate” value is reported as “protected”.

With `N[C@@H](CCC(=O)O)C(=O)O` [glutamate], the “transendothelial electrical resistance (TEER)” value in data set [4] (MBMECs) is “No changes”. In addition, the NMDAR mediated current result in [4] is recorded as “did neither evoke any”.

With `NCC(=O)O` [glycine], in [4] (MBMECs), the MBMEC migration entry is reported as “impaired”, the “intracellular Ca2+ levels” value is on record as “increase” and the “transendothelial electrical resistance (TEER)” value is reported as “reduced”. For the same molecule, the NMDAR mediated current entry in data set [4] is “bigger”.

In the case of `CC(=O)[C@H]1[C@H](C#N)C[C@H]2[C@@H]3CC=C4C[C@@H](O)CC[C@]4(C)[C@H]3CC[C@@]21C` [PCN, pregnenolone 16α-carbonitrile], in the data set with transgenic hAPP mice (hAPP mice fed for 21 months), the Aβ brain levels result was “lowered”; the “P-gp protein expression and transport activity” value is on record as “restored”; the cognition result is recorded as “improved”.

Consider `CN(CC(=O)O)C(=N)N` [creatine], for which, in data set [1] (HEK293, read-out: inhibition of [14C]cyclocreatine uptake), the inhibition at 10000 µM amounted to 97%. Also, the “inhibition of uptake” value in data set [1] (HEK293 cells) is 37%. Besides, in data set [2], the “inhibition of uptake” value stood at 63% and the “suppression of [14C]cyclocreatine uptake” value was 91%.

On to `NC(N)=NCCC(=O)O` [GPA, guanidinopropionic acid], for which the “inhibition of [14C]cyclocreatine uptake” value in data set [1] (HEK293 cells, inhibitor 10 mM, [14C]cyclocreatine 9 µM, 37 °C) is 96%. The “suppression of [14C]cyclocreatine uptake” value in [2] was found to be 91%.

Turning to “SIINFEKL [cognate peptide antigen for OT-I CD8+ T cells]”, in [6], the T-cell crawling result is recorded as “prohibited” and the T-cell migration rates result is on record as “decreased”.

Regarding “Tat: 11-residue cationic peptide, tool to facilitate delivery of peptide drug entities into cells and across barriers”, in [3], the “% of initial remained intact” value is ~ 50%. In data set [3] (cell media, conclusion statement), the “integrity in cell media (in words)” value is “extensive degradation”. The “uptake in astrocytes cultured on the basolateral (brain) side” value in the data set with astrocytes is recorded as “observed”.

B1: Creatine transporter (CRT) (Homo sapiens) (protein)
chain: T1 sequence (P48029 1-635)
notes: endogenous in cells; host or cells: HEK293 cells
Turning to B1, in data set [7], the Km came out at 188 µM and the Vmax amounted to 273 pmol/mg protein/min.
